Reference: the Kinase Knowledgebase extract (Sharma et al. 2016)

Molecular target: CDK2 (human) (UniProt P24941)
Assay: Enzyme Assay

`O=C(Nc1ccc(-n2cncn2)cc1)c1ccc(C(=O)N[C@@H]2CCNC2)s1` and `O=C(Nc1ccc(-n2cncn2)cc1)c1ccc(C(=O)NC2CC2)s1` cannot be ordered by IC50: no less than 40 µM for the first, no less than 40 µM for the second.

`O=C(Nc1ccc(-n2cncn2)cc1)c1ccc(C(=O)Nc2ccccc2Cl)s1` and `COc1ccccc1NC(=O)c1ccc(C(=O)Nc2ccc(-n3cncn3)cc2)s1` cannot be ordered by IC50: no less than 40 µM for the first, no less than 40 µM for the second.

`COc1ccc(N(C)C(=O)c2ccc(C(=O)Nc3ccc(-n4cncn4)cc3)s2)cc1` and `CN(C(=O)c1ccc(C(=O)Nc2ccc(-n3cncn3)cc2)s1)c1ccccc1` cannot be ordered by IC50: 1 to 40 µM for the first, no less than 40 µM for the second.

`O=C(Nc1ccc(C(=O)Nc2ccc(-n3cncn3)cc2)o1)c1ccncc1` and `O=C(Nc1ccncc1)c1ccc(C(=O)Nc2ccc(-n3cncn3)cc2)o1` cannot be ordered by IC50: no less than 40 µM for the first, 1 to 40 µM for the second.

First: CN1CCN(c2ccccc2NC(=O)c2ccc(C(=O)Nc3ccc(-n4cncn4)c(F)c3)s2)CC1
Second: Cc1cc(CN2CCN(C)CC2)ccc1NC(=O)c1ccc(C(=O)Nc2ccc(-n3cncn3)c(F)c2)s1
The IC50 of the first is higher: no less than 40 µM for the first, no more than 1 µM for the second. The second is the more potent here.

Going from `COc1ccc(C(=O)Nc2ccc(C(=O)Nc3ccc(-n4cncn4)cc3)o2)c(C)c1` to `COc1ccc(NC(=O)c2ccc(C(=O)Nc3ccc(-n4cncn4)cc3)o2)c(C)c1`, the IC50 falls from no less than 40 µM to no more than 1 µM.

`O=C(Nc1ccc(-n2cncn2)c(F)c1)c1ccc(C(=O)Nc2ccccc2OCc2ccncc2)s1` and `O=C(Nc1ccc(-n2cncn2)c(F)c1)c1ccc(C(=O)Nc2ccccc2OCc2ccccc2)s1` cannot be ordered by IC50: no less than 40 µM for the first, no less than 40 µM for the second.

`CN(Cc1ccccc1)C(=O)c1ccc(C(=O)Nc2ccc(-n3cncn3)cc2)s1` and `O=C(NCc1ccccc1)c1ccc(C(=O)Nc2ccc(-n3cncn3)cc2)s1` cannot be ordered by IC50: no less than 40 µM for the first, 1 to 40 µM for the second.

Compared with `CN(C(=O)c1ccc(C(=O)Nc2ccc(-n3cncn3)c(F)c2)o1)C1CCCCC1`, `O=C(Nc1ccc(-n2cncn2)c(F)c1)c1ccc(C(=O)NC2CCCCC2)o1` is lower in IC50: no less than 40 µM for the first, no more than 1 µM for the second.

`Cc1cc(CN2CCN(C)CC2)ccc1NC(=O)c1ccc(C(=O)Nc2ccc(-n3cncn3)cc2)s1` and `Cc1cc(CN2CCOCC2)ccc1NC(=O)c1ccc(C(=O)Nc2ccc(-n3cncn3)cc2)s1` cannot be ordered by IC50: no more than 1 µM for the first, no more than 1 µM for the second.

`O=C(NCCN1CCCC1)c1ccc(C(=O)Nc2ccc(-n3cncn3)cc2)s1` and `O=C(NCCN1CCNC1=O)c1ccc(C(=O)Nc2ccc(-n3cncn3)cc2)s1` cannot be ordered by IC50: 1 to 40 µM for the first, no less than 40 µM for the second.

`O=C(Nc1ccc(-n2cncn2)cc1)c1ccc(C(=O)N2CCCCC2)s1` and `O=C(Nc1ccc(-n2cncn2)cc1)c1ccc(C(=O)NC2CCCCC2)s1` cannot be ordered by IC50: no less than 40 µM for the first, no less than 40 µM for the second.

`O=C(Nc1ccc(-n2cncn2)c(F)c1)c1ccc(C(=O)Nc2ccccc2Cl)s1` and `O=C(Nc1ccc(-n2cncn2)c(F)c1)c1ccc(C(=O)Nc2ccccc2F)s1` cannot be ordered by IC50: no more than 1 µM for the first, no more than 1 µM for the second.

`Cc1cc(NC(=O)c2ccc(C(=O)Nc3ccc(-n4cncn4)cc3)s2)n(C)n1` and `Cn1nc(C2CC2)cc1NC(=O)c1ccc(C(=O)Nc2ccc(-n3cncn3)cc2)s1` fall in the same range of IC50: 1 to 40 µM for the first, 1 to 40 µM for the second.

`O=C(NCc1nc2ccccc2[nH]1)c1ccc(C(=O)Nc2ccc(-n3cncn3)cc2)s1` and `Cn1c(NC(=O)c2ccc(C(=O)Nc3ccc(-n4cncn4)cc3)s2)nc2ccccc21` cannot be ordered by IC50: no less than 40 µM for the first, no less than 40 µM for the second.

`Cc1ccnc(NC(=O)c2ccc(C(=O)Nc3ccc(-n4cncn4)cc3)s2)c1` and `Cc1cc(C)nc(NC(=O)c2ccc(C(=O)Nc3ccc(-n4cncn4)cc3)s2)c1` cannot be ordered by IC50: no less than 40 µM for the first, no less than 40 µM for the second.

`O=C(Nc1ccc(-n2cncn2)c(F)c1)c1ccc(C(=O)Nc2ccccc2Oc2ccccc2)s1` and `O=C(Nc1ccc(-n2cncn2)c(F)c1)c1ccc(C(=O)Nc2ccccc2Oc2cccnc2)s1` cannot be ordered by IC50: no less than 40 µM for the first, no less than 40 µM for the second.

`O=C(NCc1cccnc1)c1ccc(C(=O)Nc2ccc(-n3cncn3)cc2)s1` and `O=C(NCCc1ccccc1)c1ccc(C(=O)Nc2ccc(-n3cncn3)cc2)s1` cannot be ordered by IC50: no less than 40 µM for the first, no less than 40 µM for the second.

`COc1ccc(NC(=O)c2ccc(C(=O)Nc3ccc(-c4ncn(C)n4)cc3)s2)c(C)c1` and `COc1ccc(NC(=O)c2ccc(C(=O)Nc3ccc(-c4csnn4)cc3)s2)c(C)c1` cannot be ordered by IC50: no less than 40 µM for the first, no less than 40 µM for the second.

`COc1ccc(NC(=O)c2ccc(C(=O)Nc3ccc4scnc4c3)s2)c(C)c1` and `COc1ccc(NC(=O)c2ccc(C(=O)Nc3ccc4nccnc4c3)s2)c(C)c1` cannot be ordered by IC50: no less than 40 µM for the first, no less than 40 µM for the second.

`COc1ccc(NC(=O)c2ccc(C(=O)Nc3ccc4c(cnn4C)c3)s2)c(C)c1` and `COc1ccc(NC(=O)c2ccc(C(=O)Nc3ccc4nc(C)ccc4c3)s2)c(C)c1` cannot be ordered by IC50: no less than 40 µM for the first, no less than 40 µM for the second.

Going from `COc1ccc(NC(=O)c2ccc(C(=O)Nc3ccc(-n4cccn4)cc3)s2)c(C)c1` to `COc1ccc(NC(=O)c2ccc(C(=O)Nc3ccc(-n4cncn4)cc3)s2)c(C)c1`, the IC50 falls from no less than 40 µM to no more than 1 µM. The second is the more potent here.

`Cc1cc(CN(C)C)ccc1NC(=O)c1ccc(C(=O)Nc2ccc(-n3cncn3)cc2)s1` and `Cc1cc(CN(C)C)ccc1NC(=O)c1ccc(C(=O)Nc2ccc(-n3cncn3)c(F)c2)s1` fall in the same range of IC50: 1 to 40 µM for the first, 1 to 40 µM for the second.

`O=C(Nc1ccc(-n2cncn2)cc1)c1ccc(C(=O)N2CCc3ccccc3C2)s1` and `O=C(Nc1ccc(-n2cncn2)cc1)c1ccc(C(=O)N2CCCC(c3ccccc3)C2)s1` (centres undefined) cannot be ordered by IC50: 1 to 40 µM for the first, no less than 40 µM for the second.

`O=C(Nc1ccccc1)c1ccc(C(=O)Nc2ccc(-n3cncn3)cc2)s1` and `O=C(Nc1ccc(-n2cncn2)cc1)c1ccc(C(=O)Nc2cccc(O)c2)s1` cannot be ordered by IC50: no less than 40 µM for the first, no less than 40 µM for the second.

`O=C(Nc1ccc(-n2cncn2)cc1)c1ccc(C(=O)Nc2ccc3c(c2)C(=O)OC3)s1` and `O=C(Nc1ccc(-n2cncn2)cc1)c1ccc(C(=O)Nc2ccc3c(c2)OCO3)s1` cannot be ordered by IC50: no less than 40 µM for the first, no less than 40 µM for the second.

`COc1ccc(NC(=O)c2ccc(C(=O)Nc3ccc(-n4cncn4)c(F)c3)o2)c(C)c1` and `COc1ccc(C(=O)Nc2ccc(C(=O)Nc3ccc(-n4cncn4)c(F)c3)s2)c(C)c1` cannot be ordered by IC50: no more than 1 µM for the first, no more than 1 µM for the second.

`COc1ccc(C(=O)Nc2ccc(C(=O)N3CCC(Oc4cnccn4)CC3)o2)cc1` and `COc1ccc(C(=O)Nc2ccc(C(=O)N3CCC(Oc4cnccn4)CC3)s2)c(C)c1` cannot be ordered by IC50: no less than 40 µM for the first, 1 to 40 µM for the second.

Compared with `CNC(=O)c1ccc(C(=O)Nc2ccc(-n3cncn3)c(F)c2)o1`, `C[C@H](NC(=O)c1ccc(C(=O)Nc2ccc(-n3cncn3)c(F)c2)o1)C1CCCCC1` is lower in IC50: no less than 40 µM for the first, no more than 1 µM for the second. The second is the more potent here.

Compared with `O=C(Nc1ccc(C(=O)Nc2ccc(-n3cncn3)cc2)s1)c1ccncc1`, `O=C(Nc1ccc(C(=O)Nc2ccc(-n3cncn3)cc2)s1)c1ccccc1` is lower in IC50: no less than 40 µM for the first, no more than 1 µM for the second. The second is the more potent here.

First: Cc1ccccc1C(=O)Nc1ccc(C(=O)Nc2ccc(-n3cncn3)cc2)o1
Second: COc1ccc(NC(=O)c2ccc(C(=O)Nc3ccc(-n4cncn4)cc3)o2)cc1
The IC50 of the first is higher: no less than 40 µM for the first, no more than 1 µM for the second. The second is the more potent here.

`COc1ccc(NC(=O)c2ccc(C(=O)Nc3ccc(-c4nnn[nH]4)cc3)s2)c(C)c1` and `COc1ccc(NC(=O)c2ccc(C(=O)Nc3ccc(N(C)C)cc3)s2)c(C)c1` cannot be ordered by IC50: no less than 40 µM for the first, no less than 40 µM for the second.

`O=C(Nc1ccc(-n2cncn2)cc1)c1ccc(C(=O)Nc2ccc3ncsc3c2)s1` and `Cc1cc(NC(=O)c2ccc(C(=O)Nc3ccc(-n4cncn4)cc3)s2)ccc1F` cannot be ordered by IC50: no less than 40 µM for the first, no less than 40 µM for the second.

`COc1ccc(C(=O)Nc2ccc(C(=O)Nc3ccc(-n4cncn4)cc3)s2)c(C)c1` and `COc1ccc(C(=O)Nc2ccc(C(=O)Nc3ccc(-n4cncn4)cc3)s2)cc1` cannot be ordered by IC50: no more than 1 µM for the first, 1 to 40 µM for the second.

`COC[C@H](C)NC(=O)c1ccc(C(=O)Nc2ccc(-n3cncn3)cc2)s1` and `CC(C)NC(=O)c1ccc(C(=O)Nc2ccc(-n3cncn3)cc2)s1` cannot be ordered by IC50: no less than 40 µM for the first, no less than 40 µM for the second.

`C[C@H](O)CNC(=O)c1ccc(C(=O)Nc2ccc(-n3cncn3)cc2)s1` and `CC(C)CNC(=O)c1ccc(C(=O)Nc2ccc(-n3cncn3)cc2)s1` cannot be ordered by IC50: no less than 40 µM for the first, no less than 40 µM for the second.

`O=C(Nc1ccc(-n2cncn2)c(F)c1)c1ccc(C(=O)Nc2ccccc2C(F)(F)F)s1` and `O=C(Nc1ccc(-n2cncn2)c(F)c1)c1ccc(C(=O)Nc2ccccc2OC2CCCCC2)s1` cannot be ordered by IC50: 1 to 40 µM for the first, no less than 40 µM for the second.

`CCCCN(C)C(=O)c1ccc(C(=O)Nc2ccc(-n3cncn3)cc2)s1` and `CN(C)CCCNC(=O)c1ccc(C(=O)Nc2ccc(-n3cncn3)cc2)s1` cannot be ordered by IC50: no less than 40 µM for the first, no less than 40 µM for the second.

`O=C(Nc1ccc(-n2cncn2)cc1)c1ccc(C(=O)N2CCN(c3ccccc3)CC2)s1` and `O=C(Nc1ccc(-n2cncn2)cc1)c1ccc(C(=O)N[C@@H]2CCc3ccccc32)s1` cannot be ordered by IC50: no less than 40 µM for the first, no less than 40 µM for the second.

`O=C(Nc1ccc(-n2cncn2)cc1)c1ccc(C(=O)NC2CCC2)s1` and `O=C(NC[C@H]1CCCO1)c1ccc(C(=O)Nc2ccc(-n3cncn3)cc2)s1` cannot be ordered by IC50: no less than 40 µM for the first, no less than 40 µM for the second.

`COc1ccc(NC(=O)c2ccc(C(=O)Nc3ccc(-n4cncn4)cc3F)s2)c(C)c1` and `COc1ccc(NC(=O)c2ccc(C(=O)Nc3ccc(F)cc3-n3cncn3)s2)c(C)c1` cannot be ordered by IC50: no less than 40 µM for the first, 1 to 40 µM for the second.

`COC(=O)c1ccc(NC(=O)c2ccc(C(=O)Nc3ccc(OC)cc3C)s2)cc1` and `COc1ccc(NC(=O)c2ccc(C(=O)Nc3ccc(OCCN(C)C)cc3)s2)c(C)c1` cannot be ordered by IC50: no less than 40 µM for the first, no less than 40 µM for the second.

`Cc1cc(N2CCNCC2)ccc1NC(=O)c1ccc(C(=O)Nc2ccc(-n3cncn3)cc2)s1` and `Cc1cc(N2CCOCC2)ccc1NC(=O)c1ccc(C(=O)Nc2ccc(-n3cncn3)cc2)s1` cannot be ordered by IC50: no more than 1 µM for the first, no more than 1 µM for the second.

`O=C(Nc1ccc(-n2cncn2)c(F)c1)c1ccc(C(=O)Nc2ccccc2COc2ccccc2)s1` and `COc1ccc(NC(=O)c2ccc(C(=O)Nc3ccc(-n4cncn4)cc3)s2)cc1F` cannot be ordered by IC50: no less than 40 µM for the first, no less than 40 µM for the second.

`O=C(Nc1ccc(-n2cncn2)cc1)c1ccc(C(=O)NC2CCCCC2)o1` and `O=C(Nc1ccc(-n2cncn2)cc1)c1ccc(C(=O)N[C@H]2CCc3ccccc32)s1` cannot be ordered by IC50: no more than 1 µM for the first, 1 to 40 µM for the second.

`COc1ccc(NC(=O)c2ccc(C(=O)Nc3ccc4ncccc4c3)s2)c(C)c1` and `COc1ccc(NC(=O)c2ccc(C(=O)Nc3cccc(-c4cnco4)c3)s2)c(C)c1` cannot be ordered by IC50: no less than 40 µM for the first, no less than 40 µM for the second.

`Cc1cc(N2CCOCC2)ccc1NC(=O)c1ccc(C(=O)Nc2ccc(-n3cncn3)c(F)c2)s1` and `Cc1cc(CN2CCOCC2)ccc1NC(=O)c1ccc(C(=O)Nc2ccc(-n3cncn3)c(F)c2)s1` cannot be ordered by IC50: no more than 1 µM for the first, no more than 1 µM for the second.

`O=C(NCCc1c[nH]cn1)c1ccc(C(=O)Nc2ccc(-n3cncn3)cc2)s1` and `O=C(NCc1ccc2c(c1)CCO2)c1ccc(C(=O)Nc2ccc(-n3cncn3)cc2)s1` cannot be ordered by IC50: no less than 40 µM for the first, no less than 40 µM for the second.

`COC(=O)c1cc(OC)ccc1NC(=O)c1ccc(C(=O)Nc2ccc(-n3cncn3)cc2)s1` and `COc1ccc(NC(=O)c2ccc(C(=O)Nc3ccc(-n4cncn4)cc3)s2)cc1OC` cannot be ordered by IC50: 1 to 40 µM for the first, no less than 40 µM for the second.

For `Cc1cc(N[C@H]2CCNC2)ccc1NC(=O)c1ccc(C(=O)Nc2ccc(-n3cncn3)c(F)c2)s1`, the IC50 was no more than 1 µM.
